What was measured:
AKR/J Obese Mice = AKR/J Obese Mice In Vivo Assay (Example 13)
Method: AKR/J mice are known in the art to be susceptible to diet-induced obesity. (Rossmeisl M, Rim J S, Koza R A, Kozak L P. Diabetes. 2003 August; 52(8):1958-66.)
Male AKR/J mice (˜20 gram) at 4-5 weeks of age (Jackson Laboratories, Bar Harbor, Me.) were housed individually in a shoe-box cage at 21° C. with a 12-h light-dark cycle. The mice were fed with a high fat diet for 8 weeks to induce obesity. The composition of the diet by energy was 45% energy as fat, 20% as protein, and 35% as carbohydrate (Research Diets, D12451, New Brunswick, N.J.).
Obese mice with body weights between 35 and 46 grams were selected for the studies. Mice were randomized according to body weight into treatment groups at 13 weeks of age. The mice were orally gavaged once daily (0.2 ml at 1500-1700 hour) with vehicle control (0.5% methylcellulose, pH7.4) or vehicle containing Compound #8 (300 mg/kg). The body weights and food intake of the mice were monitored every few days. On day 11, the mice were anaesthetized with sodium pentobarbital (1 ml/kg, i.p, Sleepaway, Fort Dodge, Iowa). White adipose tissue (WAT) (retroperitoneal fat) and skeletal muscle (gastrocnemius and soleus muscle) were dissected and weighed.
Data shown below are expressed as mean and standard error calculated using 9-10 mice per treatment group. The 2 tailed Student's t-Tests were used for statistic analysis. All animal studies complied with the guideline of the Institutional Animal Care and Use Committee.

AKR/J mice = test: Obesity In Vivo Assays in diet-induced obese AKR/J mice (Example 14, first study and second dose response study); details: for Intake of high fat diet (g) Day 0-3 / Intake of high fat diet (g) Day 4-7 / Weight loss (g) Day 4 / Weight loss (g) Day 8 / Weight loss (g) Day 10 / Brown Adipose Tissue / Epididymal fat / Muscle / Retroperitoneal fat / Total intake of high fat diet (g) Day 1-10 / Weight loss (g) Day 7: mean ± SE; for Ratio (fat/muscle): total weights of inguinal fat and retroperitoneal fat/muscle weight
From the text: Compound #8 was suspended in 0.5% Methocel using a hand held homogenizer to reduce the particle size and a magnetic stir bar and stir plate to keep the particles homogeneously suspended throughout the dosing period. 0.5% Hydroxypropyl Methylcellulose (Methocel) used as vehicle/control.
Male AKR/J mice weighing between 35 to 46 grams were used for weight loss studies. AKR/J mice are susceptible to diet-induced obesity. Male AKR/J mice (average body weight of about 20 grams) at 4 to 5 weeks of age (obtained from Jackson Laboratories, Bar Harbor, Me.) were group housed, five per cage, in a shoebox cage at 21° C. with a 12 h light dark cycle. All of the mice were quarantined for a period of one week before transfer to the animal procedure room. The mice were fed a high fat diet for 8 weeks to induce obesity. The composition of the diet by energy was 45% energy as fat, 20% as protein, and 35% as carbohydrate (obtained from Research Diets, D12451, New Brunswick, N.J.). As a non-obese control, an additional group of mice that were age- and weight-matched was fed with a low fat diet (obtained from Research Diets, D12450B, New Brunswick, N.J.). Only mice that developed obesity, defined as a body weight between 35 and 46 grams, were selected for the weight loss studies. Animals were separated and single housed at least three days prior to the drug treatments to allow acclimation to the new surroundings.
The assay comprised two separate studies: In the first study, 10 mice were given vehicle control of 0.5% Methocel; 10 mice were treated with 300 mg/kg Compound #8 in vehicle; and 10 mice were dosed as positive control with 10 mg/kg sibutramine (a weight loss agent) in vehicle. In the second study, 48 mice were allocated into 4 treatment groups of 12 mice each. The four groups were then treated with 0.5% Methocel (vehicle), 10 mg/kg Compound #8, 30 mg/kg Compound #8, and 100 mg/kg Compound #8 in vehicle, respectively.
The mice were orally gavaged once daily (at 1500-1700 hour) with vehicle control (0.5% methocel, pH7.4) or vehicle containing Compound #8 for 10 days. The dosing volume was 5 mL/kg body weight (0.2 mL for 40 gram mice). Body weight and food intake of mice were monitored periodically throughout the studies. On Day 11, the mice were fasted for 4 hr during light cycle (food was removed 0600-1000 hour). A necropsy was done 18 hours after last dosing. The mice were anaesthetized with sodium pentobarbital (1 ml/kg, intraperitoneal [i.p.] injection, SleepAway, Fort Dodge, Iowa) and blood was drawn via cardiac puncture using an 1 mL syringe and collected into heparinized tubes. […] Plasma samples were obtained by centrifuging whole blood at 2000˜3000 g for 10˜20 minutes at 4° C. and stored at −20° C. for further measurement of insulin, HDL, LDL, and total cholesterol and triglyceride.
Blood glucose levels were measured with a glucometer (OneTouch UltraSmart, Lifescan, Milpitas, Calif.) after collecting two microliters of blood through tail puncture. Plasma insulin concentrations were measured by using rat/mouse insulin enzyme-linked immunosorbent assay (ELISA) kit (EZRMI-13K, LINCO Research, St. Charles, Mo.). Blood samples were diluted 1:4 in charcoal stripped mouse serum that was included in the ELISA kit. The rest of the procedure followed the manufacturers instruction. The total fluorescence was detected using an Orion 1 Microplate Luminometer (Berthold Detection Systems, Pforzheim, Germany). Plasma total cholesterol, high density lipoprotein (HDL), low density lipoprotein (LDL) and triglyceride concentrations were measured by using a Bayer ADVIA 1650 blood chemistry analyzer (Bayer HealthCare LLC, Diagnostic Division, Tarrytown, N.Y.). […]

[1] = 300 mg/kg oral, 10-day treatment
[2] = first study, 300 mg/kg oral gavage once daily
[3] = first study, 300 mg/kg, after 10 days of dosing
[4] = second study, 10 mg/kg oral once daily
[5] = second study, 30 mg/kg oral once daily
[6] = second study, 100 mg/kg oral once daily
[7] = first study, 10 mg/kg, after 10 days of dosing
[8] = first study, positive control 10 mg/kg

NS(=O)(=O)NC[C@H]1COc2cc(Cl)ccc2O1 [Compound #8, (2S)-(−)-N-(6-Chloro-2,3-dihydro-benzo[1,4]dioxin-2-ylmethyl)-sulfamide]
Weight Loss (AKR/J Obese Mice; 300 mg/kg oral gavage once daily, 10-day treatment, mean ± standard error, 9-10 mice): -3.3 ± 0.34 g
Food Intake (g) Day 4-10 (AKR/J Obese Mice; 300 mg/kg oral gavage once daily, Day 4-10, mean ± standard error): 16.2 ± 0.68 g
Retroperitoneal Fat Weight (AKR/J Obese Mice; 300 mg/kg oral gavage once daily, dissected day 11, mean ± standard error): 0.47 ± 0.04 g
Skeletal Muscle Weight (AKR/J Obese Mice; 300 mg/kg oral gavage once daily, gastrocnemius and soleus, day 11, mean ± standard error): 0.30 ± 0.01 g
changes in skeletal muscle mass (in words) (AKR/J Obese Mice; [1]): no significant changes
decrease of fat to lean mass ratio (white adipose tissue/skeletal muscle) compared to vehicle treated mice (AKR/J Obese Mice; [1]): 16.8%
reduction of retroperitoneal fat relative to vehicle treated mice (AKR/J Obese Mice; [1]): 26.6%
fat to lean mass ratio (white adipose tissue/skeletal muscle) (AKR/J Obese Mice; 300 mg/kg oral, 10-day treatment, vehicle 8.9±0.4, p<0.05): 7.4±0.5
weight loss compared to vehicle treated mice (in words) (AKR/J Obese Mice; 300 mg/kg oral, after 10-day treatment): greater weight loss
food intake relative to control animals (in words) (AKR/J Obese Mice; 300 mg/kg oral, day 4 to day 10): reduction of food intake
gastric emptying (AKR/J Obese Mice; 300 mg/kg oral, p<0.05): delay gastric emptying at a statistically significant level
Intake of high fat diet (g) Day 0-3 (AKR/J mice; [2]): 10.0 ± 0.4 g
Intake of high fat diet (g) Day 4-7 (AKR/J mice; [2]): 10.6 ± 0.4 g
Weight loss (g) Day 4 (AKR/J mice; [2]): -0.3 ± 0.3 g
Weight loss (g) Day 8 (AKR/J mice; [2]): -2.5 ± 0.3 g
Weight loss (g) Day 10 (AKR/J mice; [2]): -3.3 ± 0.3 g
weight loss compared with vehicle treated mice (in words) (AKR/J mice; [3]): significant weight loss
white adipose tissue weight compared with vehicle treatment (in words) (AKR/J mice; [3]): reduced white adipose tissue weight
Brown Adipose Tissue (AKR/J mice; [3]): 0.22 ± 0.09 g
Epididymal fat (AKR/J mice; [3]): 1.73 ± 0.10 g
Muscle (AKR/J mice; [3]): 0.30 ± 0.01 g
Retroperitoneal fat (AKR/J mice; [3]): 0.47 ± 0.04 g
food intake compared to vehicle (in words) (AKR/J mice; first study, 300 mg/kg, three days after treatment): Significant suppression of food intake
Ratio (fat/muscle) (AKR/J mice; first study, 300 mg/kg): 7.42 ± 0.54
Total stomach content, measured at the end of the study (AKR/J mice; first study, 300 mg/kg, vehicle 0.16±0.02 g, p<0.05): 0.27 ± 0.05 g
weight loss or food intake suppression (in words) (AKR/J mice; second dose response study, 10, 30, and 100 mg/kg): no significant (P>0.05) weight loss or food intake suppression
Total intake of high fat diet (g) Day 1-10 (AKR/J mice; [4]): 28 ± 0.5 g
Weight loss (g) Day 4 (AKR/J mice; [4]): 0.1 ± 0.1 g
Weight loss (g) Day 7 (AKR/J mice; [4]): 0.2 ± 0.2 g
Weight loss (g) Day 10 (AKR/J mice; [4]): 0.3 ± 0.3 g
Total intake of high fat diet (g) Day 1-10 (AKR/J mice; [5]): 28 ± 0.5 g
Weight loss (g) Day 4 (AKR/J mice; [5]): 0.1 ± 0.1 g
Weight loss (g) Day 7 (AKR/J mice; [5]): 0.0 ± 0.2 g
Weight loss (g) Day 10 (AKR/J mice; [5]): -0.4 ± 0.2 g
Total intake of high fat diet (g) Day 1-10 (AKR/J mice; [6]): 28 ± 0.6 g
Weight loss (g) Day 4 (AKR/J mice; [6]): 0.2 ± 0.1 g
Weight loss (g) Day 7 (AKR/J mice; [6]): 0.2 ± 0.3 g
Weight loss (g) Day 10 (AKR/J mice; [6]): 0.1 ± 0.2 g

CC(C)CC(N(C)C)C1(c2ccc(Cl)cc2)CCC1 (stereo not shown) [Sibutramine, sibutramine, reference compound]
food intake from day 0 to Day 3 (in words) (AKR/J mice; first study, 10 mg/kg): reduction of food intake
weight after 3 days treatment (in words) (AKR/J mice; first study, 10 mg/kg): lost weight
weight at the end of the study compared to control mice (in words) (AKR/J mice; first study, 10 mg/kg): no difference in weight
Brown Adipose Tissue (AKR/J mice; [7]): 0.14 ± 0.01 g
Epididymal fat (AKR/J mice; [7]): 1.76 ± 0.11 g
Muscle (AKR/J mice; [7]): 0.31 ± 0.01 g
Retroperitoneal fat (AKR/J mice; [7]): 0.61 ± 0.07 g
Ratio (fat/muscle) (AKR/J mice; first study, 10 mg/kg): 7.67 ± 0.59
Intake of high fat diet (g) Day 0-3 (AKR/J mice; [8]): 6.5 ± 0.3 g
Intake of high fat diet (g) Day 4-7 (AKR/J mice; [8]): 14.4 ± 0.7 g
Weight loss (g) Day 4 (AKR/J mice; [8]): -2.0 ± 0.2 g
Weight loss (g) Day 8 (AKR/J mice; [8]): -1.2 ± 0.4 g
Weight loss (g) Day 10 (AKR/J mice; [8]): -1.2 ± 0.5 g

NS(=O)(=O)NCC1CCc2ccccc2O1 (stereo not shown)
melting point: 100 to 101 °C

Source: patent publication US20080027131A1, “USE OF BENZO-FUSED HETEROCYCLE SULFAMIDE DERIVATIVES FOR THE TREATMENT OF OBESITY” (priority 2005, published 2008)
